From PubChem BioAssay (NCI)
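Method: 48-hour compound exposure of cells in 96-well plates, five concentrations, linear interpolation of endpoints. TGI denotes the concentration required for complete inhibition of growth.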

Key:
Assay in all cases: inhibition of tumour cell growth, NCI panel, 48 h
SF-539 CNS = system: SF-539 CNS
SK-MEL-5 melanoma = system: SK-MEL-5 melanoma
M14 melanoma = system: M14 melanoma
HS 578T breast = system: HS 578T breast
NCI/ADR-RES ovarian = system: NCI/ADR-RES ovarian
SF-268 CNS = system: SF-268 CNS
SK-MEL-2 melanoma = system: SK-MEL-2 melanoma
U251 CNS = system: U251 CNS
TK-10 renal = system: TK-10 renal
LOX IMVI melanoma = system: LOX IMVI melanoma

Compound	TGI (SF-539 CNS)	TGI (SK-MEL-5 melanoma)	TGI (M14 melanoma)	TGI (HS 578T breast)	TGI (NCI/ADR-RES ovarian)	TGI (SF-268 CNS)	TGI (SK-MEL-2 melanoma)	TGI (U251 CNS)	TGI (TK-10 renal)	TGI (LOX IMVI melanoma)
CCCCC/C(C=O)=C\c1ccccc1	> 100 µM	> 100 µM	> 100 µM	> 100 µM	> 100 µM	> 100 µM	> 100 µM	> 100 µM	> 100 µM	> 100 µM
CCOC(=O)C1(C(=O)OCC)CCCN1C(=O)[C@H](CNC(=O)OC(C)(C)C)NC(=O)OCc1ccccc1	> 100 µM	> 100 µM	> 100 µM	> 100 µM	> 100 µM	> 100 µM	> 100 µM	> 100 µM	> 100 µM	> 100 µM
COc1cc(C=C2C(=O)NC(=S)NC2=O)cc(OC)c1OC	> 100 µM	> 100 µM	> 100 µM	> 100 µM	> 100 µM	> 100 µM	> 100 µM	> 100 µM	> 100 µM	> 100 µM
Cc1ccc(S(=O)(=O)NC(=O)NNc2ccc(F)cc2)cc1	> 100 µM	> 100 µM	> 100 µM	> 100 µM	> 100 µM	> 100 µM	> 100 µM	> 100 µM	> 100 µM	> 100 µM
Cc1cc2nc(-c3cc(C(C)(C)C)c(O)c(C(C)(C)C)c3)[nH]c2cc1C	> 100 µM	> 100 µM	> 100 µM	> 100 µM	> 100 µM	> 100 µM	> 100 µM	> 34.3 µM	> 100 µM	28.6 µM
Cc1ccc(-c2c(C#N)c(-c3ccc([N+](=O)[O-])cc3)c(C#N)c(=O)n2NS(=O)(=O)c2ccccc2)cc1	> 100 µM	26.9 µM	> 100 µM	33.1 µM	> 100 µM	> 100 µM	> 100 µM	> 100 µM	> 100 µM	83 µM
CC1(C)[C@@H](Cn2cnc3c(Cl)nc(N)nc32)CC[C@@]1(C)CO	> 100 µM	47.3 µM	> 100 µM	44.9 µM	> 100 µM	43.3 µM	35.1 µM	> 100 µM	> 100 µM	80.9 µM
COC(=O)c1cc2c(cc1CC(Cc1ccc3c(c1)CCC3)C(=O)OC)CCC2 (stereo not given)	> 100 µM	67.6 µM	> 100 µM	> 100 µM	> 100 µM	> 100 µM	> 100 µM	> 100 µM	> 100 µM	> 100 µM
CC1=CC(=O)CC2(C)CCC(C(C)CC(=O)CC(C)C)CC12 (stereo not given)	30 µM	36.4 µM	32.1 µM	> 100 µM	> 100 µM	> 100 µM	> 100 µM	> 100 µM	> 100 µM	34.8 µM
COc1c(O)c(O)cc2c1-c1ccc(OC)c(=O)cc1C(NC(C)=O)CC2 (stereo not given)	10.4 µM	11.3 µM	> 79 µM	> 24.9 µM	> 69.8 µM	> 95.2 µM	50.6 µM	28.9 µM	> 100 µM	20.6 µM
CC(C)(C)c1ccc(OCC(=O)O)c(Cl)c1	> 100 µM	> 100 µM	> 100 µM	> 100 µM	> 100 µM	> 100 µM	> 100 µM	> 100 µM	> 100 µM	> 100 µM
Nc1nc(Nc2ccc(Cl)cc2)sc1C(=O)c1cccs1	61 µM	> 100 µM	> 100 µM	42.2 µM	> 100 µM	83.4 µM	> 100 µM	38.4 µM	36.3 µM	> 100 µM
COC(=O)c1cc(C)ccc1CC(Cc1ccc(C)cc1)C(=O)OC (stereo not given)	> 100 µM	12.6 µM	> 100 µM	> 100 µM	> 100 µM	> 35.3 µM	> 90.3 µM	> 100 µM	> 100 µM	> 100 µM
COC(=O)C1(Cc2ccc3c(c2)CCC3)Cc2cc3c(cc2C1)CCC3	> 100 µM	> 100 µM	> 100 µM	> 100 µM	> 100 µM	> 100 µM	49.3 µM	> 100 µM	> 100 µM	42.3 µM
